Measurements as given in PubChem BioAssay (NCI).
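A five-concentration, 48-hour dose response in 96-well plates underlies each endpoint, interpolated linearly between surrounding concentrations. TGI marks complete inhibition of growth.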 Where a SMILES comes first, the peptide text is derived from it. The star is where a group is joined. Boc = CC(C)(C)OC(=O)*; Bn = c1ccc(C*)cc1

What was measured:
Test in all cases: NCI anticancer screen, dose series, 48 h
SF-268 CNS = tested on: SF-268 CNS
NCI/ADR-RES ovarian = tested on: NCI/ADR-RES ovarian
HCT-15 colon = tested on: HCT-15 colon
CCRF-CEM leukemia = tested on: CCRF-CEM leukemia
TK-10 renal = tested on: TK-10 renal
LOX IMVI melanoma = tested on: LOX IMVI melanoma
BT-549 breast = tested on: BT-549 breast
KM12 colon = tested on: KM12 colon
MCF7 breast = tested on: MCF7 breast

SMILES	TGI (SF-268 CNS) [µM]	TGI (NCI/ADR-RES ovarian) [µM]	TGI (HCT-15 colon) [µM]	TGI (CCRF-CEM leukemia) [µM]	TGI (TK-10 renal) [µM]	TGI (LOX IMVI melanoma) [µM]	TGI (BT-549 breast) [µM]	TGI (KM12 colon) [µM]	TGI (MCF7 breast) [µM]
CN(C)c1ccc(/C=c2/c3ccccc3n3c2c2c([n+]3C)CCCC2)cc1	1.6	43.9	5.56	5.17	1.55	1.39	2.19	0.539	0.321
NC(N)=NS(=O)(=O)c1ccc(NNc2c3ccccc3nc3c(C(=O)Nc4ccc(S(=O)(=O)Nc5ncccn5)cc4)cccc23)cc1	> 100	> 100	> 100	> 100				> 100	> 100
COc1cc(C2c3cc4c(cc3OC(N3CCCCC3)C2C)OCO4)cc(OC)c1O (configuration not stated)	> 53.8	18.5	> 57.1	25.1	38.5	> 59.8	90.5	50.6	> 43
O=C(Nc1ccccc1)c1cc(S(=O)(=O)NC2=NC(c3ccccc3)c3cc(Cl)ccc3N2)c(SSc2cc(Cl)c(C(=O)Nc3ccccc3)cc2S(=O)(=O)NC2=NC(c3ccccc3)c3cc(Cl)ccc3N2)cc1Cl (configuration not stated)	> 100	> 100	> 100		> 100	> 100	> 100	> 100	> 100
CCOC(=O)Nc1[nH]cc(-c2ccccc2)c1C#N	> 100	> 100	> 100	> 100	> 100	> 100		> 100	> 100
CC1(C)OC(C(=O)Nc2cc3c4ccccc4ccc3c3ccccc23)C(C(=O)N2CCCCC2)O1 (configuration not stated)	> 100	> 100	> 100	> 100	> 100	25.3	> 100	> 100	> 29.7
CC1CC(OP(=O)(OCc2ccccc2)OCc2ccccc2)[C@@H](OCc2ccccc2)C(OCc2ccccc2)C1OCc1ccccc1 (some centres not stated)	> 100	> 100	> 100	> 100	> 100	> 100	> 100		> 100
COC(=O)C1=C(OC(=O)/C(=C/c2ccc(Cl)cc2)c2ccc(Cl)cc2)C(C(=O)OC)[C@@]2(O)[C@@H](C(=O)OC)[C@H](C)C[C@@H]1[C@@H]2C(=O)OC (some centres not stated)	> 100	> 100	> 100	> 100	> 100	> 100	> 100	> 100	> 100
COc1cccc(C2c3cc4c(cc3OC(N3CCCCC3)C2C)OCO4)c1O (configuration not stated)	99.8	> 100	19.9	13.9	62.8	41.7	54.9	23.1	57.7
Nc1c(C(=O)O)nnc2ccc(Cl)cc12	> 100	> 100	> 100	> 100	> 100	> 100	> 100	> 100	> 100
COc1cc(C2C3C=CC=C4CC=CC(=C43)C3CCC(=O)N32)cc(OC)c1OC (configuration not stated)	> 100	69.8	> 100		> 100	> 100		> 100	> 100
C=CCCON(C(=O)OC(C)(C)C)C(C)(C)C	> 100	> 100	> 100	> 100	> 100	> 100	> 100	> 100	
Cc1ccc(-c2c(C#N)c(-c3ccc(C)cc3)n(NS(=O)(=O)c3ccccc3)c(=O)c2C#N)cc1	> 100	> 100	> 100	77.7	> 100	> 100	> 100	> 100	> 100
Cc1ccnc2[nH]c(-c3ccc4ccccc4c3)cc(=O)c12	39.4	7.14	10.8	8.43	13.4	12.2	31.8	20.6	3.91
CCCC(=O)NC(NC1CCCCC1)(C(=O)OCC)C(F)(F)F (configuration not stated)	> 100	> 100	> 100	> 100	> 100	> 100		> 100	> 100
COC(=O)c1ccc(/C=C/c2cc(O)ccc2O)cc1	8.41	7.72	12.2	0.719	45.3	9.39	3.49	28	21.8
CC(C)(C)OC(=O)NC1CCCCC1NC(=O)C(=O)NC1CCCCC1NC(=O)OC(C)(C)C (configuration not stated)	> 100	> 100	> 100	> 100	> 100	> 100	> 100	> 100	> 100
CC1=NN(c2nc(N)nc(/C(C#N)=C\c3ccc([N+](=O)[O-])s3)n2)C(C)(C)C1	> 100	12.8	0.325	0.0942	1.26	0.3	2.44	1.85	0.375
O=C1C2SC34c5c2c2ccccc2n5CCC3CCCN14 (configuration not stated)	> 100	> 100	> 100		87	> 100	> 100	> 100	> 100
Cc1ccc2c(c1)C(=S)N1CSCC1c1nncn1-2 (configuration not stated)	> 100	> 100	> 100	> 100	> 100	> 100	> 100	> 100	> 100
COC(=O)C(CC(C)C)NC(=O)C(C)NC(=O)C(Cc1ccc(OCc2ccccc2)cc1)NC(=O)C(COCc1ccccc1)NC(=O)OC(C)(C)C (configuration not stated) (Boc-S(Bn)Y(Bn)AL-OMe; configuration not given here)	> 100	> 100			> 100	> 100	> 100	> 100	> 100
C=CCc1cccc2cc(C(=O)NCc3ccccc3)c(=N)oc12	> 100	> 100	> 100	> 100		> 100	> 100	> 100	> 100
Cc1n(Cc2ccccc2)c2c([n+]1C)C(=O)c1ccccc1C2=O	0.143	> 100	16.2	> 100	1.67	0.401	0.234	0.708	0.079
CCn1c(-c2ccccc2)cs/c1=N\C(P(=O)(O)O)P(=O)(O)O	> 100	> 100	> 100	> 100	> 100	> 100	> 100	> 100	> 100
